Results taken from US20240043860A1, “NOVEL HYDROXYPHENYLPYRUVATE DIOXYGENASE POLYPEPTIDES AND METHODS OF USE THEREOF” (Syngenta Crop Protection AG, priority 2020, published 2024).

Experiments:
[1] = test system: HPPD variant AVESA V208 (SEQ ID NO: 14); test: biochemical; format: biochemical, Avena sativa; conditions: SEQ ID NO: 14 compared to control SEQ ID NO: 122
Experimental: (§1) 25 ul of the overnight cultures were inoculated into fresh 96-deepwell block containing 1 ml Formedium Autoinduction Media (AIM). The AIM cultures were grown for 3h at 37° C. (900rpm) and then transferred to 20° C. overnight (900rpm) to allow protein expression. The overnight cultures were centrifuged and 500 ul of Cellytic B (Sigma Aldrich) was added to resuspend the cell pellets. The coupled HGO assay (Siehl et al, 2014) is used to generate IC50 values for the HPPD variants of interest.
(§2) E. coli BL21 (DE3) cells were transformed with a pET24a vector containing a C-terminally his-tagged Arabidopsis HGO gene, grown and induced overnight as described for the HPPD variants above. The cell pellet was resuspended in phosphate buffered saline at pH 7.4 containing 10% Glycerol, 1mm Tris[2-carboxyethyl] phosphine-HCl (TCEP) plus 30 mM Imidazole and lysed using lysozyme/benzonase. The extract was clarified by low speed centrifugation and purified in the same buffer down a 1 ml His Gravitrap column. The bound HGO was eluted in 0.25M imidazole and the fractions pooled and beaded into liquid nitrogen. All procedures apart from the centrifugation and beading steps were carried out under a nitrogen atmosphere.
(§3) The coupled HGO assay is carried out by adding 10 ul of HPPD extract to a 96-well plate and then adding 40 ul of reaction buffer (50 mM Bis Tris Propane, pH7.0, 25 mM sodium-L-ascorbate, 400μM mercaptoethanol, 50 μM Fe(II)SO4). The plates are left to incubate for 5 minutes on ice. […] 200 ul of HPP/HGO (197 μM hydroxyphenylpyruvic acid, 16 μl/ml Homogentisic Acid Oxidase in reaction buffer as described above) buffer is then added to the well and the reaction is regularly monitored (e.g. every 30 seconds-5 minutes) for absorbance at 330 nm for a given time period (e.g., for between 15-60 minutes). The data can then be used to calculate the IC50 value for each HPPD variant of interest.

[2] = test system: transgenic tobacco plants expressing mutant HPPD SEQ ID NO: 21; test: spray test, herbicidal damage scoring; format: in vivo; conditions: 2000 g/ha; SEQ ID 21 plants compared to plants expressing SEQ IDs 122, 124 or 125
Experimental: (§4) Avena sativa HPPD or orthologues and variants thereof, for example SEQ IDs 1-63 and 122-127, were expressed in transgenic tobacco. DNA sequences that encode these polypeptides (optimized for tobacco or, optionally, codon optimized according to a target crop such as soybean) were prepared synthetically. Each sequence was designed to include a 5′ fusion with TMV omega 5′ leader sequence such that they are flanked at the 5′ end with XhoI and at the 3′ end with KpnI to facilitate direct cloning into a suitable binary vector for Agrobacterium-based plant transformation. […]
(§5) Plants are assessed for damage and scored at, for example, 7 and 14 days after treatment (DAT). […]
(§6) Plants of events showing the least damage are grown to flowering, then bagged and allowed to self. […] Single copy events amongst the Ti plant lines are identified by their 3:1 segregation ratio (with respect to kanamycin and/or herbicide) and by quantitative RT-PCR. […] HPPD expression levels were monitored by Western analysis. […]

[3] = test system: transgenic tobacco plants expressing mutant HPPD SEQ ID NO: 8; test: spray test, herbicidal damage scoring; format: in vivo; conditions: 2000 g/ha; SEQ ID 8 plants compared to plants expressing SEQ IDs 122, 124 or 125
Experimental: as §4, §5, §6

[4] = biological target: HPPD variant AVESA V209 (SEQ ID NO: 17) (Avena sativa, UniProt A0ACD5V6K6, A327R/I340E/L359M/R214G/V218I/V260A); test: biochemical; format: biochemical
HPPD variant AVESA V209 (SEQ ID NO: 17) (Avena sativa, UniProt A0ACD5V6K6, A327R/I340E/L359M/R214G/V218I/V260A), sequence (A0ACD5V6K6 entry or part of it R214G/V218I/V260A/A327R/I340E/L359M): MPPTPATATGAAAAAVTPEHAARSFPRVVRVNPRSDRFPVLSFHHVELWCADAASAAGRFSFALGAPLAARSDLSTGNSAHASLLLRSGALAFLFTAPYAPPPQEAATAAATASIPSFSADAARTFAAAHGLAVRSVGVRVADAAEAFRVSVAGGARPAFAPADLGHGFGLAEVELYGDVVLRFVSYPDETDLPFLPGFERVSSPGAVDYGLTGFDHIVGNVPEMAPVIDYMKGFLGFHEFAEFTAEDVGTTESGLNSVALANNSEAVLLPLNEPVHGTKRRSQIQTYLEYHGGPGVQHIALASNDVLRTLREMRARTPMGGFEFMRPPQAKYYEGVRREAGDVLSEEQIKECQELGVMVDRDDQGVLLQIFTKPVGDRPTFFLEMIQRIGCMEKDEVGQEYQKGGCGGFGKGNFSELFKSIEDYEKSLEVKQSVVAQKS
Experimental: as §1, §2, §3

[5] = test system: HPPD variant AVESA V209 (SEQ ID NO: 17); test: biochemical; format: biochemical, Avena sativa; conditions: SEQ ID NO: 17 compared to control SEQ ID NO: 122
Experimental: as §1, §2, §3

[6] = test system: HPPD variant AVESA V201 (SEQ ID NO: 8); format: biochemical, Avena sativa; conditions: SEQ ID NO: 8 compared to control SEQ ID NO: 122
Experimental: as §1, §2, §3

Structure (SMILES)	increase of the IC50 value [1] [fold]	damage [2]	damage [3]	IC50 [4] [µM]	increase of the IC50 value [5] [fold]	increase of the IC50 value [6] [fold]
COc1ccc(-n2nc(C)cc(C(=O)C3C(=O)CCCC3=O)c2=O)cc1OC [Herbicide C, dioxopyritrione]	> 200					
Cn1nnnc1NC(=O)c1ccc(C(F)(F)F)nc1-n1cncn1 [Herbicide D, N-(1-methyltetrazol-5-yl)-2-(1,2,4-triazol-1-yl)-6-(trifluoromethyl)pyridine-3-carboxamide]		significantly reduced damage	significantly reduced damage	106	~14	~80
